This is an account of results in doi:10.1101/2025.06.18.657655, “Fibulin-4 is highly expressed in metastatic breast cancer and can serve as a target of peptide-based imaging probes and experimental therapeutics” (bioRxiv, 2025).

Bridge positions count the residues as written; N and C are the ends. Square brackets hold non-standard residues; d marks the D form. Ends that are not written are not given here. * marks the point of attachment. Biotin = O=C1N[C@H]2[C@H](CS[C@H]2CCCCC(=O)*)N1

For data set [1], the system named is HEK293 cells ectopically expressing FBLN4. As to the kind of experiment: Fluorescent peptide binding to HEK293 cells. The following applies: Figure S2A. In kind it is cell-based.
Data set [2] concerns invasive and metastatic cancer cells in tissue sections. As to the kind of experiment: Overlay assay on paraffin tissue sections. As for the experimental part:
Octet binding assays were performed with an Octet RED96 system (ForteBio) as described ([13]). Briefly, the peptides were loaded onto streptavidin resin-coated biosensors (Sartorius Lab, 18–5019) at a concentration of 20 ug/ml in 1x kinetic buffer for 5 min. […] For all experiments, Ka (1/Ms) and Kd (1/s) were measured. FortéBio’s data analysis software was employed to fit the binding curve to a 1:1 binding model in order to extract association and dissociation rates. Overlay assay on tissues was performed by incubating AZDye555-BLMP6 (12.5 ug/ml) for 2 hr and washing with PBS before fixation with 4% paraformaldehyde.

A further data set has as its target T1, FBLN4 (Mus musculus, UniProt Q9WVJ9).
T1 construct: proteins extracted from 4T1 cells were incubated with beads pre-loaded with BLMP6; endogenous in cells; host or cells: 4T1 mouse breast cancer cells
T1 sequence (Q9WVJ9 28-443): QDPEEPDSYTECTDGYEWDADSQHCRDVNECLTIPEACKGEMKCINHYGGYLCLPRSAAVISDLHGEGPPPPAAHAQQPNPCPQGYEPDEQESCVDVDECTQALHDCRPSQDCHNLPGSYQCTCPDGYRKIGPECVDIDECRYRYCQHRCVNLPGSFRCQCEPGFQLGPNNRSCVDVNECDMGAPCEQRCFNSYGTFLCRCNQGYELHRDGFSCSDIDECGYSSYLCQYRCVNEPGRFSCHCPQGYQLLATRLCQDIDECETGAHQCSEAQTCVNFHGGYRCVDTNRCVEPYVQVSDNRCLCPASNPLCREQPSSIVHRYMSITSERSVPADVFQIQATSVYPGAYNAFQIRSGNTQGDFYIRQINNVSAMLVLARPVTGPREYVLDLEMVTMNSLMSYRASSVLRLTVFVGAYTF
As to the kind of experiment: Affinity purification of FBLN4 from 4T1 cell extract on BLMP6-loaded beads. The following applies: biotinylated BLMP6 immobilized on streptavidin-coated beads; not isolated on control beads. The class given is binding. As for the experimental part: To test if BLMP6 binds to FBLN4 in vitro, we used Octet to perform the biolayer interferometry assay. […] To confirm BLMP6 binding to FBLN4 expressed by cancer cells, proteins extracted from 4T1 cells were incubated with beads pre-loaded with BLMP6. […] To confirm BLMP6 binding to FBLN4 in a genetic model, we used CRISPR/Cas9 to make 4T1 FBLN4 knockout (KO) cells confirmed by RT-PCR (Figure 1E). FBLN4-KO and control 4T1-luc cells were grafted into mice, and once metastases were detected by bioluminescence, phage displaying BLMP6 ([6]) was injected. After 30 min of circulation, heart perfusion was performed, and lungs were recovered. Section histopathology confirmed metastasis formation in all lungs, indicating FBLN4 expression is not required for cancer cell colonization and growth at the secondary site.

Another data set in a line: Stability in mouse serum. In kind it is in vitro ADME. The following applies: Figure S4B-C. The text has this:
To test MMAE-BLMP6 efficacy in vivo, we first analyzed its stability in mouse serum. […] We then used the experimental lung metastasis model of B16F10 cells injected intravenously to produce lung metastases.

Data set [3] has as its system MDA-MB-231-luc-GFP lung metastases. As to the kind of experiment: MDA-MB-231 experimental lung metastasis model, treatment. In kind it is in vivo, mouse. The text has this: (§1) Animal studies were approved by the IACUC of UTHealth. Spontaneous cancer progression to metastases was modeled by injecting 2×10^4 4T1 cells into the mammary fat pad of 10-week-old female Balb/c mice (Jackson Laboratory) with a 31-gauge needle. Metastatic progression was monitored with bioluminescence imaging. For lung metastasis modeling, Balb/c mice were tail vein-injected with 2.5×10^5 4T1-luc WT or FBLN4-KO cells, C57BL/6 mice (Jackson) were tail vein-injected with 1×10^5 B16F10 cells, and athymic Nude-Foxn1nu (Envigo) mice were tail vein-injected with 1×10^5 MDA-MB-231-luc-GFP cells. For phage-peptide homing analysis, mice were injected into the tail vein with 5×10^10 transducing units (TU) of phage-BLMP6 ([6]). After 30 min of circulation, heart perfusion with 10 ml of PBS was performed and lung sections were processed. For PET imaging studies, mice were intravenously injected with 7.4 MBq (200 μCi, 5 nmol) of ^68Ga-labeled DOTA-BLMP6 and imaged 45–60 min later using Albira small-animal PET/CT scanner (Bruker After imaging, the mice were euthanized, the tissues of interest were harvested and probe homing was analyzed using a Cobra II automated gamma counter (Packard) and expressed as percentage of the injected dose per gram tissue (%ID/g tissue).
To test MMAE-BLMP6 efficacy for cancer suppression, we first used the B16F10 experimental lung metastasis model. Three MMAE-BLMP6 (50 ug) or PBS subcutaneous injections were done over days 1–6 and four additional MMAE-BLMP6 (100 ug) or PBS subcutaneous injections on days 8–18 after iv injection of B16F10-luc cells (Figure 5A). […] While vehicle-treated mice began dying on day 15, with most animals perishing by day 21, MMAE-BLMP6-treated mice only started showing metastases on day 15 by IVIS and survived 2 to 3 days longer (Figure 5A). In the MDA-MB-231-luc-GFP experimental lung metastasis model, a similar trend was observed (Figure 5C).

In a further data set the test system is B16F10 lung metastases. The data set is described as follows: B16F10 experimental lung metastasis model, treatment. The class given is in vivo, mouse. The conditions noted are these: B16F10-luc iv.
From the text: as §1
To test MMAE-BLMP6 efficacy for cancer suppression, we first used the B16F10 experimental lung metastasis model. […]

Data set [4] has as its target T2, Fibulin-4 protein (Abcam, 182808) (UniProt O95967 24-443).
T2 chain: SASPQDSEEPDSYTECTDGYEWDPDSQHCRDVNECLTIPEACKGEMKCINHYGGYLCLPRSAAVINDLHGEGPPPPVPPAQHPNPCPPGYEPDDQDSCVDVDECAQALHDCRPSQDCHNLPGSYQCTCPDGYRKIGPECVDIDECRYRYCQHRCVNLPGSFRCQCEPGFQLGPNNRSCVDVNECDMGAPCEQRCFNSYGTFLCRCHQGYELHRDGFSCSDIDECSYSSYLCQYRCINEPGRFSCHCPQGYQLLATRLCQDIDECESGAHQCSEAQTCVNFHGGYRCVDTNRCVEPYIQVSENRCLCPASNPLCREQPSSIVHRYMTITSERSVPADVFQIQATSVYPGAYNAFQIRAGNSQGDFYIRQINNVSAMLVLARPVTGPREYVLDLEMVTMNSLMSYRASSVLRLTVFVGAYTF
The data set is described as follows: BLI.

For data set [5], the target named is FBLN4 of mouse 4T1 cancer cells (mouse (endogenous in 4T1)) (UniProt Q9WVJ9).

In the case of “AZDye555-BLMP6 (AZDye555-CRAGVGRGC; bridge 1-9 (inferred))”, in data set [1], the “binding to HEK293 cells ectopically expressing FBLN4” value was “confirmed to bind” and the “binding to non-transfected control HEK293 cells” value is “not to non-transfected control cells”. For the same molecule, the “binding to lung sections from mice grafted with 4T1 cells” value in data set [2] (12.5 ug/ml overlay, 2 hr, paraffin sections) is on record as “selectively bound to metastatic lesions but not to normal lung”. For the same molecule, the “binding to lung sections from mice with MDA-MB-231 experimental lung metastases” value in data set [2] (12.5 ug/ml overlay, paraffin sections, N-cadherin IF) is listed as “binds to a subpopulation of tumor cells expressing N-cadherin”. Moreover, in data set [2] (human FFPE tissue arrays: 50 primary, 40 metastatic, 10 adjacent control biopsies), the “binding across human breast cancer tissue array cores” value was “largely concordant with N-cadherin expression”.
As for “CRAGVGRGC (disulfide 1-9 (inferred)) [BLMP6, cyclic peptide … that homes to disseminating tumor cells]”, the “FBLN4 isolated from 4T1 cell proteins on peptide-loaded beads, immunoblotting with anti-FBLN4 antibodies” value at FBLN4 is reported as “the predicted 49 kDa band was observed”.
Regarding “MMAE-BLMP6: monomethyl auristatin E coupled to all-D BLMP6 via PEG4, valine-citrulline and PAB linker ([dC][dR][dA]G[dV]G[dR]G[dC]; disulfide 1-9 (inferred); also: MMAE coupled via PAB-Cit-Val-PEG4 linker, site not given here)”, in “Stability in mouse serum”, the “time after which a secondary degradation peak appeared in mouse serum” value came to 6 h. Further, the “stability in mouse serum, peaks observed” value in the data set “Stability in mouse serum” (after 1 hr) is “single MMAE-BLMP6 peak was observed”. For the same molecule, the “survival beyond controls, one treated mouse” value in data set [3] (MDA-MB-231-luc-GFP iv, one of the treated mice) came to 9 days. The “metastasis growth, bioluminescence imaging” value in data set [3] (MDA-MB-231-luc-GFP iv, sc treatment versus PBS, days 12 and 21) is “suppressed metastasis growth”. In data set [3] (athymic mice, 50 to 100 μg sc, at day 15, treatment interrupted 6 days, re-initiated at 15 μg daily), the “tolerability, clinical observation” value was “signs of sickness”. In addition, the “metastasis burden, bioluminescence analysis by IVIS” value in the data set with B16F10 lung metastases (sc 50 ug x3 over days 1-6 and 100 ug x4 on days 8-18, versus PBS, at day 5) is recorded as “metastasis suppression”. In the data set on B16F10 lung metastases (sc 50 ug x3 then 100 ug x4, vehicle mice began dying on day 15, most by day 21), the “survival longer than vehicle-treated mice” value was in the range of 2 to 3 days.

B1: biotinylated BLMP6, cyclic peptide CRAGVGRGC (peptide)
peptide: Biotin-CRAGVGRGC
modifications: disulfide 1-9 (inferred)
For the molecule B1, the dissociation rate constant (koff) (in general, a measure of how fast the partners let go of each other) in data set [4] turned out to be 3.18e-07 s⁻¹.

B2: MMAE-BLMP6 (peptide)
peptide: [dC][dR][dA]G[dV]G[dR]G[dC]
modifications: disulfide 1-9 (inferred); also: MMAE coupled via PAB-Cit-Val-PEG4 linker, site not given here
As for B2, the IC50 of cell viability (CellTiter-Blue), 4T1 cells, 24 h after adding MMAE-BLMP6 in data set [5] came to 500 nM.
